Assay results from US20240360075A1, “N-SUBSTITUTED C6 CYCLYL CARBOXAMIDE COMPOUNDS AND USES THEREOF” (ALCON INC., priority 2023, published 2024).

Molecular target: T1, TRPM8 (Homo sapiens, UniProt Q7Z2W7)
T1 construct: purchased Eurofins (Cerep) item #3316
Experiment: TRPM8 Human Transient Potential Ion Channel Cell Based Agonist Calcium Flux Assay (Eurofins Cerep item #3316)
Conditions: for Emax: read-out: Percent Agonist; for EC50: room temperature
Text: Compounds can be tested using the commercially available kit from Eurofins “TRPM8 Human Transient Potential Ion Channel Cell Based Agonist Calcium Flux Assay, Cerep” item #3316, or using the assay, referenced by Eurofins, and described in Behrendt et al. “Characterization of the mouse cold-menthol receptor TRPM8 and vanilloid receptor type-1 VR1 using a fluorometric imaging plate reader (FLIPR) assay,” Br J Pharmacol. 2004 Feb;141(4):737-45, which are each incorporated herein by reference. […] 4.
The assay is done at room temperature and measures calcium flux.

[1] = control activator ligand icilin

T1 sequence (Q7Z2W7 whole entry): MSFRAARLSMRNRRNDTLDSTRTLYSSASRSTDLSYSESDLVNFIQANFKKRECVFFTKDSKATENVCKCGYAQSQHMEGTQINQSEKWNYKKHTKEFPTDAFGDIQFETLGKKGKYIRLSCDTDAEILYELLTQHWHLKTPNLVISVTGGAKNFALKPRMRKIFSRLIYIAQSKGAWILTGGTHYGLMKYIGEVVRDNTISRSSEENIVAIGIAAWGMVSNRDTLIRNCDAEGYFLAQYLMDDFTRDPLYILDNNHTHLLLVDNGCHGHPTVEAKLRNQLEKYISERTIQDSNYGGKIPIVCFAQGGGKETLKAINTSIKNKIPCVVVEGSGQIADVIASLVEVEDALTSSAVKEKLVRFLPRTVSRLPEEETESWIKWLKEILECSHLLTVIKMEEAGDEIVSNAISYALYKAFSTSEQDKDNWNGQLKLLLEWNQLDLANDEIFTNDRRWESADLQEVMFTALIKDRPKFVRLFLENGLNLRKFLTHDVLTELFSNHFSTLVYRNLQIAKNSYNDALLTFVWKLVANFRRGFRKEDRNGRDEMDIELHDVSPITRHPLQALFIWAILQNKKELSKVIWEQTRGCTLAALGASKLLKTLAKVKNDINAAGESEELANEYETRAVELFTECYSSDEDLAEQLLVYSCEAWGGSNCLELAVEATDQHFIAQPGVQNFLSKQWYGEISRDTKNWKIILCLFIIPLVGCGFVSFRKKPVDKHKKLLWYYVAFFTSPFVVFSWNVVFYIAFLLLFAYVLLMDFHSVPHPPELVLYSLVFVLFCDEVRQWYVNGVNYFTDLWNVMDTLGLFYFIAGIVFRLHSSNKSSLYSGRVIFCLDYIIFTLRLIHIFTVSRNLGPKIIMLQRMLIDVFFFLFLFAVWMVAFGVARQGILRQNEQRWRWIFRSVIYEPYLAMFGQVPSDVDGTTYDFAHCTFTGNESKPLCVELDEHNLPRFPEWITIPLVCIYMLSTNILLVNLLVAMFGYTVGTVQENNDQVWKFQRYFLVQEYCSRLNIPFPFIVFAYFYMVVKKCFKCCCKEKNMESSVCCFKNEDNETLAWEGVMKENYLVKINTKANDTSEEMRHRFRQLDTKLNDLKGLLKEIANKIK

Row | Compound | Emax [1] [%] | EC50 [µM] | Percent Agonist [1] [%] | EC50 (no unit printed in this row) [µM]
1 | COCC12CC(NC(=O)[C@@H]3C[C@H](C)CC[C@H]3C(C)C)(C1)C2 [Compound 35] | > 75 | < 0.1 | – | –
2 | CC(C)[C@@H]1CC[C@@H](C)C[C@H]1C(=O)NC1CC2(CCCO2)C1 (stereo partly shown) [Compound 44] | > 75 | < 1 | – | –
3 | CC(C)[C@@H]1CC[C@@H](C)C[C@H]1C(=O)NCC1(C#N)CC1 [Compound 93] | > 75 | < 10 | – | –
4 | CC(C)[C@@H]1CC[C@@H](C)C[C@H]1C(=O)Nc1ccc(B2OC(C)(C)C(C)(C)O2)cn1 [Compound 79] | > 75 | < 2 | – | –
5 | CC(C)[C@@H]1CC[C@@H](C)C[C@H]1C(=O)NC12CC(C#N)(C1)C2 [Compound 27] | > 75 | < 5 | – | –
6 | CON(C)C(=O)C12CC(NC(=O)[C@@H]3C[C@H](C)CC[C@H]3C(C)C)(C1)C2 [Compound 49] | > 75 | < 0.5 | – | –
7 | CC(C)[C@@H]1CC[C@@H](C)C[C@H]1C(=O)NCCC#N [Compound 99] | > 75 | < 10 | – | –
8 | COCCOCCOc1ccc(NC(=O)[C@@H]2C[C@H](C)CC[C@H]2C(C)C)cc1 [Compound 5] | > 75 | < 0.5 | – | –
9 | CC(C)[C@@H]1CC[C@@H](C)C[C@H]1C(=O)NC1CC2C(C1)C2(F)F (stereo partly shown) [102 or 92] | – | < 0.5 | >75 | –
10 | COc1ccc(NC(=O)[C@@H]2C[C@H](C)CC[C@H]2C(C)C)nc1Cl [Compound 75] | > 75 | < 5 | – | –
11 | CC(C)[C@@H]1CC[C@@H](C)C[C@H]1C(=O)Nc1ccc(CCO)cc1 [Compound 17] | > 75 | < 0.1 | – | –
12 | COC(=O)CC12CC(NC(=O)[C@@H]3C[C@H](C)CC[C@H]3C(C)C)(C1)C2 [Compound 43] | > 75 | < 1 | – | –
13 | CC(C)[C@@H]1CC[C@@H](C)C[C@H]1C(=O)NC12CCC(C(F)(F)F)(CC1)C2 [Compound 59] | > 75 | < 1 | – | –
14 | CC(C)[C@@H]1CC[C@@H](C)C[C@H]1C(=O)N[C@H]1CC[C@H](N)C1 [Compound 34] | > 75 | < 1 | – | –
15 | CC(C)[C@@H]1CC[C@@H](C)C[C@H]1C(=O)Nc1ccccc1CN(C)C [Compound 65] | > 50 | < 1 | – | –
16 | CC(C)[C@@H]1CC[C@@H](C)C[C@H]1C(=O)NC1CCN(C)CC1 [Compound 54] | > 75 | > 10 | – | –
17 | CC(C)[C@@H]1CC[C@@H](C)C[C@H]1C(=O)NCC1CC1(F)F (stereo partly shown) [Compound 89] | > 75 | < 1 | – | –
18 | CC(C)[C@@H]1CC[C@@H](C)C[C@H]1C(=O)N[C@H]1CCC(F)(F)C1 [Compound 94] | > 75 | < 0.5 | – | –
19 | COc1ccc(NC(=O)c2cccc(C(F)(F)F)c2)cc1 [Compound 174] | – | > 10 | – | –
20 | CC(C)[C@@H]1CC[C@@H](C)C[C@H]1C(=O)Nc1ccc2c(c1)B(O)OC2 [Compound 4] | > 50 | < 0.1 | – | –
21 | COCCOc1ccc(NC(=O)[C@@H]2C[C@H](C)CC[C@H]2C(C)C)cc1 [Compound 3] | > 75 | < 0.5 | – | –
22 | CO[C@H]1CC[C@H](NC(=O)[C@@H]2C[C@H](C)CC[C@H]2C(C)C)CC1 [Compound 50] | > 100 | < 0.5 | – | –
23 | CC(C)[C@@H]1CC[C@@H](C)C[C@H]1C(=O)Nc1cnn(CCO)c1 [Compound 70] | > 75 | < 1 | – | –

Row | Compound | Emax [1] [%] | EC50 [µM] | Percent Agonist [1] [%] | EC50 (no unit printed in this row) [µM]
24 | COc1ccc(NC(=O)[C@@H]2C[C@H](C)CC[C@H]2C(C)=O)cc1 [Compound 108] | > 5 | > 10 | – | –
25 | CC(C)[C@@H]1CC[C@@H](C)C[C@H]1C(=O)NC1CN(CCO)C1 [Compound 28] | > 75 | < 10 | – | –
26 | COC(=O)NC12CC(NC(=O)[C@@H]3C[C@H](C)CC[C@H]3C(C)C)(C1)C2 [Compound 37] | > 100 | < 1 | – | –
27 | COC12CCC(NC(=O)[C@H]3CCC[C@@H](N)C3)(CC1)CC2 [Compound 171] | – | > 10 | – | –
28 | CC(C)[C@@H]1CC[C@@H](C)C[C@H]1C(=O)Nc1ccnc(CN(C)C)c1 [Compound 77] | > 50 | < 5 | – | –
29 | CC(C)[C@@H]1CC[C@@H](C)C[C@H]1C(=O)NC12CC(C(=O)OC(C)(C)C)(C1)C2 [Compound 51] | > 75 | < 0.1 | – | –
30 | CC(C)[C@@H]1CC[C@@H](C)C[C@H]1C(=O)Nc1ccc(Cl)cn1 [Compound 86] | > 100 | < 5 | – | –
31 | CC(C)[C@@H]1CC[C@@H](C)C[C@H]1C(=O)Nc1ccc(S(C)(=O)=O)nc1 [Compound 84] | > 75 | < 0.1 | – | –
32 | CC(C)[C@@H]1CC[C@@H](C)C[C@H]1C(=O)NCCC1CC1(F)F (stereo partly shown) [Compound 91] | > 75 | < 1 | – | –
33 | CCOc1ccc(NC(=O)[C@@H]2C[C@H](C)CC[C@H]2C(C)C)cn1 [Compound 76] | > 50 | < 0.1 | – | –
34 | COc1ccc(NC(=O)[C@H]2CCC[C@@H](O)C2)cc1 [Compound 177] | – | > 10 | – | –
35 | COC(=O)Cn1cc(NC(=O)[C@@H]2C[C@H](C)CC[C@H]2C(C)C)cn1 [Compound 68] | > 75 | < 7.5 | – | –
36 | COc1ccc(NC(=O)[C@@H]2C[C@H](C)CC[C@H]2C(C)C)cn1 [Compound 74] | > 50 | < 0.1 | – | –
37 | CNC(=O)c1cc(OC)ccc1NC(=O)[C@@H]1C[C@H](C)CC[C@H]1C(C)C [Compound 61] | > 75 | < 0.1 | – | –
38 | CC(C)[C@@H]1CC[C@@H](C)C[C@H]1C(=O)Nc1ccc(C2(O)COC2)cc1 [Compound 21] | > 75 | < 0.1 | – | –
39 | CC(C)[C@@H]1CC[C@@H](C)C[C@H]1C(=O)NC12CC(CO)(C1)C2 [Compound 33] | > 100 | < 1 | – | –
40 | CC(C)[C@@H]1CC[C@@H](C)C[C@H]1C(=O)Nc1cncc(Cl)c1 [Compound 80] | > 75 | < 1 | – | –
41 | COC12CCC(NC(=O)c3cc(Cl)ccc3C(C)C)(CC1)CC2 [Compound 172] | > 100 | < 3 | – | –
42 | CC(C)[C@@H]1CC[C@@H](C)C[C@H]1C(=O)NC(=N)N [Compound 69] | > 75 | – | – | < 10
43 | CC(C)[C@@H]1CC[C@@H](C)C[C@H]1C(=O)NCC1COC1 [Compound 56] | > 75 | < 10 | – | –
44 | CC(C)[C@@H]1CC[C@@H](C)C[C@H]1C(=O)NCC#N [Compound 97] | – | > 10 | – | –
45 | COc1ccc(NC(=O)[C@@H]2C[C@H](C)CC[C@H]2C(C)C)c(F)n1 [Compound 81] | > 100 | < 0.1 | – | –
46 | CC(C)[C@@H]1CC[C@@H](C)C[C@H]1C(=O)Nc1ccc(OCCN(C)C)cc1 [Compound 11] | > 75 | < 0.5 | – | –

Row | Compound | Emax [1] [%] | EC50 [µM] | Percent Agonist [1] [%] | EC50 (no unit printed in this row) [µM]
47 | COC(=O)C12CCC(NC(=O)[C@@H]3C[C@H](C)CC[C@H]3C(C)C)(CC1)CC2 [Compound 57] | > 75 | < 1 | – | –
48 | CC(C)[C@@H]1CC[C@@H](C)C[C@H]1C(=O)NC1CC2(COC2)C1 [Compound 32] | > 75 | < 2 | – | –
49 | CC(C)[C@@H]1CC[C@@H](C)C[C@H]1C(=O)NC12CC(F)(C1)C2 [Compound 29] | > 100 | < 1 | – | –
50 | CC(C)[C@@H]1CC[C@@H](C)C[C@H]1C(=O)Nc1cc(C(=O)O)ns1 [Compound 64] | – | > 10 | – | –
51 | COC(=O)c1ccc(NC(=O)[C@@H]2C[C@H](C)CC[C@H]2C(C)C)cn1 [Compound 78] | > 75 | < 0.5 | – | –
52 | CC(C)[C@@H]1CC[C@@H](C)C[C@H]1C(=O)Nc1ccc(N2CCOCC2)nc1 [Compound 73] | > 50 | < 0.1 | – | –
53 | COC1CC(NC(=O)[C@@H]2C[C@H](C)CC[C@H]2C(C)C)C1 (stereo partly shown) [Compound 48] | > 50 | < 0.5 | – | –
54 | CC(C)[C@@H]1CC[C@@H](C)C[C@H]1C(=O)NC12CC(CCO)(C1)C2 [Compound 45] | > 100 | < 1 | – | –
55 | COC(=O)C12CC(NC(=O)c3cc(C)ccc3C(C)C)(C1)C2 [Compound 170] | > 75 | < 5 | – | –
56 | COc1ccc(CNC(=O)[C@@H]2C[C@H](C)CC[C@H]2C(C)C)cc1 [Compound 10] | > 75 | < 5 | – | –
57 | COC12CC(NC(=O)[C@@H]3C[C@H](C)CC[C@H]3C(C)C)(C1)C2 [Compound 25] | > 75 | < 0.1 | – | –
58 | CC(C)[C@@H]1CC[C@@H](C)C[C@H]1C(=O)Nc1ccc(B2OC(C)(C)C(C)(C)O2)cc1 [Compound 22] | > 100 | < 0.5 | – | –
59 | CC(C)[C@@H]1CC[C@@H](C)C[C@H]1C(=O)Nc1ccncn1 [Compound 83] | > 75 | < 5 | – | –
60 | COC(=O)c1cc(NC(=O)[C@@H]2C[C@H](C)CC[C@H]2C(C)C)ccn1 [Compound 72] | > 75 | < 5 | – | –
61 | CC(C)[C@@H]1CC[C@@H](C)C[C@H]1C(=O)NC12CCC(CO)(CC1)C2 [Compound 46] | > 100 | < 0.5 | – | –
62 | CC(C)[C@@H]1CC[C@@H](C)C[C@H]1C(=O)N1CC(C)(CC(F)F)C1 [Compound 95] | – | > 10 | – | –
63 | CC(C)[C@@H]1CC[C@@H](C)C[C@H]1C(=O)N[C@@H]1CCC(F)(F)C1 [Compound 98] | > 75 | < 0.5 | – | –
64 | CCOC(=O)CC1(c2ccc(NC(=O)[C@@H]3C[C@H](C)CC[C@H]3C(C)C)cc2)COC1 [Compound 24] | > 100 | < 0.5 | – | –
65 | CC(C)[C@@H]1CC[C@@H](C)C[C@H]1C(=O)NC1CCC(S(C)(=O)=O)C1 (stereo partly shown) [Compound 106] | > 50 | < 10 | – | –
66 | COCCO[C@H]1CC[C@H](NC(=O)[C@@H]2C[C@H](C)CC[C@H]2C(C)C)CC1 [Compound 52] | > 100 | < 1 | – | –
67 | CC(C)[C@@H]1CC[C@@H](C)C[C@H]1C(=O)NC12CC(NC(=O)CO)(C1)C2 [Compound 47] | > 100 | < 0.5 | – | –
68 | C=C(C)[C@@H]1CC[C@@H](C)C[C@H]1C(=O)Nc1ccc(OC)cc1 [Compound 107] | > 100 | < 0.5 | – | –
